Laboratory results from patent US7132590B2, “Methods of making male-sterile plants by underexpressing allene oxide synthase” (The Arizona Board of Regents on Behalf of the University of …, priority 2001, dated 2006).
“Also recorded” adds a separate entry of the source.

Assays:
[1] = system: Arabidopsis aos mutant; type: in vivo, Arabidopsis thaliana; conditions: for time after application at which aos mutant siliques started to elongate / time for aos mutant siliques to reach the wild-type silique size: after OPDA and MeJA spraying; for rescue of male sterile phenotype (silique elongation, fertility) of aos mutant: flower buds of 4 week old plants, twice a day for two days, 1% LA or 2 mM MeJA sprayed, 1 mM OPDA dipped, siliques monitored two weeks
Method: Application of linolenic acid (LA; Cayman Chemical, USA) and methyl jasmonate (MeJA; Sigma-Aldrich, USA) to recover male sterility of Arabidopsis aos mutant was done by spraying 1% of LA and 2 mM MeJA directly on Arabidopsis flower buds of 4 week old plants grown under long day condition. Oxo-phytodienoic acid (OPDA; Cayman Chemical, USA) was applied by dipping of floral buds in the 1 mM OPDA and 0.01% TritonX-100 (Sigma-Aldrich, USA) solution. These plants were sprayed twice a day for two days. The plants were monitored for silique production over the next two weeks.
The AOS gene is important in jasmonate biosynthesis because it catalyzes the most upstream step in the JA-specific biosynthetic pathway (FIG. 1).

[2] = system: triple mutant (fad3-2/fad7-2/fad8); conditions: mutant lacking hexadecatrienoic acid (16:3) and LA (18:3); McConn and Browse (1996); cited from earlier work
[3] = system: male-sterile mutant (dad1); conditions: Ishiguro et al. (2001); cited from earlier work

Compound | time after application at which aos mutant siliques started to elongate [1] | time for aos mutant siliques to reach the wild-type silique size [1] | rescue of male sterile phenotype (silique elongation, fertility) of aos mutant [1] | rescue of male sterility [2] | rescue of sterility phenotype [3]
CC/C=C\CC1C(=O)CCC1CC(=O)OC (stereo not drawn) [MeJA, methyl jasmonate] | Two | in a week | rescued to wild-type; also recorded: can rescue the aos male sterile phenotype |  | 
CC/C=C\C[C@@H]1C(=O)C=C[C@@H]1CCCCCCCC(=O)O [OPDA, Oxo-phytodienoic acid] | Two | in a week | rescued to wild-type |  | 
CC/C=C\C[C@H]1C(=O)CC[C@@H]1CC(=O)O [jasmonic acid, Jasmonic acid] |  |  | restoration of essentially wild-type siliques and recovered fertility | could be rescued | could be rescued
